These compounds were tested against T1, GPx4 embedded in a mmRM (membrane-bound GPx4) (Homo sapiens, UniProt P36969, U73G) (assay: NMR (15N-HSQC) titration of fragments against GPx4 embedded in DLPC/DPC mmRM, apparent Kd). Conditions: Table 1; GPx4 in DLPC/DPC mmRM, NMR titration up to 400 μM or 1 mM; ± standard error of global Kd fit; read-out: Kd (apparent).
T1 construct: Truncated U46G-GPx4 with a TEV cleavable poly-histidine tag was inserted into vector; poly-histidine tag with TEV cleavage site; host or cells: BL21 (DE3) E. coli
T1 sequence (P36969 1-170 isoform P36969-2 U46G): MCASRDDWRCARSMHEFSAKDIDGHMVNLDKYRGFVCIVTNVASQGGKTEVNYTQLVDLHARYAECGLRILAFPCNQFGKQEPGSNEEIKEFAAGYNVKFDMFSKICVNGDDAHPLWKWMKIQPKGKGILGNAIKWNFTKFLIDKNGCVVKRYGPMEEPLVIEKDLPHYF
Assay type: binding
Excerpt: To assess whether the fragment hits are bound specifically to GPx4 and to calculate affinity, we performed NMR-based titrations. Chemical shift changes that approach saturation in a structurally localized manner target indicate specific binding.[24] This allows true positive hits to be separated from false positives and weak or nonspecific binders. Additionally, NMR-based titrations allow for the extraction of a binding affinity (Kd). To calculate apparent Kd values, CSP cutoffs were used to isolate the resonances with most shifting using 1 standard deviation above the average CSP. All 14 fragments identified from the deconvolutions were titrated up to 400 μM or 1 mM if needed. Of the 14, 9 had apparent Kds less than 1 mM and were identified as hits. Observed here is a 0.47% hit rate with best affinities in the μM range for the membrane-bound form of GPx4 and is consistent with ligandable and potentially druggable targets.[14],[57] […] The remaining five fragments, 10–14, were ruled out as weaker (>∼1 mM) or nonspecific binders. Weak or nonspecific binding could indicate that fragments partitioning to the mmRM surface and perturb the protein spectrum through a simple change in the chemical environment at the interface, among other possible nonspecific effects. […] We note that the weaker and nonspecific fragments were only eliminated due to interaction modes that are too weak or unproductive for advancement toward inhibitors; yet, binding was nevertheless detected. […] We note here that apparent Kd values reported in this study account for a total amount of fragment and protein within the mmRM sample and are not corrected for any potential concentrating effect due to localization of fragment to the mmRM surface or water phase.
NMR samples were prepared with ^15N-isotopically labeled protein with 10% v/v of d-pentane as the lock solvent (Sigma-Aldrich, St. Louis, MO). All NMR spectra were collected at 25 °C on a 700 MHz Bruker Avance III instrument. All NMR spectra were processed using NMRPipe[66] and analyzed using NMRFAM-Sparky.[67] Chemical shifts for GPx4 (BMRB 50955) were assigned from those previously published.[52] Chemical shift perturbations from ^15N-HSQC spectra were calculated using the following formula [drawing 1] where Δ^1H and Δ^15N are the changes in ^1H and ^15N chemical shifts, respectively.
The 14 fragments isolated from deconvolutions were purchased from Life Chemicals (fragments 1, 4, 6, and 11, and 12–14), Combi-Blocks (2, 3, 5, 9, and 10), or ChemBridge Hit2Lead (7 and 8). All fragment 1 and 5 analogues were also purchased from ChemBridge Hit2Lead. Fragments and analogues purchased from Life Chemicals and Hit2Lead are 90+% pure, while the fragments purchased from Combi-Blocks ranged from 95 to 97% pure. The day prior to the titration, a double-volume sample of encapsulated GPx4 was made before being split up into two separate vials. Half of the sample was added to the vial containing predried fragment corresponding to 400 μM or 1 mM. […] If they were, then the two samples were mixed to produce varying concentrations and to measure a titration curve. The top-shifting resonances were determined by calculating the average CSP at 400 μM or 1 mM and 1 and 2 standard deviations (σ) above that average. The CSP for the resonance at each fragment concentration was extracted and fit to a curve using an affinity equation that accounts for ligand depletion [drawing 2]
Any resonance producing a curve with an R^2 below 0.85 was removed, and the remaining resonances were then used to fit a global apparent Kd curve for the fragment hit. Standard error for Kd from the global fit of all of the selected residues is reported.

Kd	SMILES
110 ± 65 µM	N#Cc1ccc(CC(=O)O)cc1 [Fragment 2]
140 ± 50 µM	NCCS(=O)(=O)c1ccccc1 [Fragment 3]
140 ± 85 µM	COCC(=O)N1CCOc2ccccc2C1 [Fragment 4]
310 ± 100 µM	NCc1nc(-c2ncccn2)no1 [Fragment 7]
370 ± 165 µM	CC(=O)c1c(C)nn(CC(=O)O)c1C [Fragment 8]
840 ± 300 µM	CCOC(=O)c1ccc(Cl)nn1 [Fragment 9]

Same assay, conditions: Table 2, analogues of fragment 5; GPx4 in mmRM; ± standard error of global Kd fit; read-out: Apparent Kd

Kd	SMILES
> 400 µM	O=c1oc2c(-c3ccccc3)cc(O)cc2s1 [Analog 5.1]
> 400 µM	Cc1cccc(-c2cc(O)cc3sc(=O)oc23)c1 [Analog 5.2]
85 ± 50 µM	O=c1oc2c(-c3ccccc3Cl)cc(O)cc2s1 [Analog 5.3]
40 ± 20 µM	O=c1oc2c(-c3ccc(Cl)cc3)cc(O)cc2s1 [Analog 5.4]
25 ± 10 µM	O=c1oc2c(-c3cccc(Cl)c3)cc(O)cc2s1 [Analog 5.6]
15 ± 10 µM	Cc1ccc(-c2cc(O)cc3sc(=O)oc23)cc1Cl [Analog 5.7]

— PMC11267533, “Ligandability at the Membrane Interface of GPx4 Revealed through a Reverse Micelle Fragment Screening Platform” (JACS Au, 2024)
